Numbered stars: 1 amine (or outer) side, 2 acyl side, 3 side chain; on linkers, the order of the positions; unused ones are H or OH. Bridge positions count the residues as written; N and C are the ends. Square brackets hold non-standard residues; d marks the D form. Side chains are listed from the residue outwards. Peptide text beside a SMILES is read from it. * marks the point of attachment. γGlu = O=C(O)[C@H](CCC(=O)[*:2])N[*:1]; Palmitoyl = CCCCCCCCCCCCCCCC(=O)*; Aib = CC(C)(N)C(=O)O
Legend:
[1] = biological target: T1, human GLP-1R (Homo sapiens, UniProt P43220); assay: cAMP formation in HEK293 cells expressing human GLP-1R; format: cell-based; settings: 15 min at 37° C.
T1 construct: expressed in transfected cells; host or cells: HEK293
Description: (§1) Similarly, activation of the GLP-1 receptor by a GLP-1 agonist will stimulate cellular cAMP formation. Thus, production of cAMP in suitable cells expressing one of these two receptors can be used to monitor the relevant receptor activity.
(§2) The skilled person will be aware of suitable assay formats, and examples are provided below. […] (Where sequences of precursor proteins are referred to, it should of course be understood that assays may make use of the mature protein, lacking the signal sequence).
(§3) On the day of analysis, growth medium was removed and the cells washed once with 200 μl Tyrode buffer. Cells were incubated in […] containing increasing concentrations of test peptides, 100 μM IBMX, and 6 mM glucose for 15 min at 37° C. The reaction was stopped by addition of 25 μl 0.5 M HCl and incubated on ice for 60 min. The cAMP content was estimated using the FlashPlate® cAMP kit from Perkin-Elmer. EC50 values were estimated by computer aided curve fitting.

[2] = biological target: T2, human glucagon receptor (Homo sapiens, UniProt P47871); assay: cAMP formation in HEK293 cells expressing the human glucagon receptor; format: cell-based; settings: 15 min at 37° C., read-out: EC50 (nM) GuR
T2 construct: expressed in transfected cells; host or cells: HEK293
Description: as §1, §2, §3

T1 sequence (P43220 24-463): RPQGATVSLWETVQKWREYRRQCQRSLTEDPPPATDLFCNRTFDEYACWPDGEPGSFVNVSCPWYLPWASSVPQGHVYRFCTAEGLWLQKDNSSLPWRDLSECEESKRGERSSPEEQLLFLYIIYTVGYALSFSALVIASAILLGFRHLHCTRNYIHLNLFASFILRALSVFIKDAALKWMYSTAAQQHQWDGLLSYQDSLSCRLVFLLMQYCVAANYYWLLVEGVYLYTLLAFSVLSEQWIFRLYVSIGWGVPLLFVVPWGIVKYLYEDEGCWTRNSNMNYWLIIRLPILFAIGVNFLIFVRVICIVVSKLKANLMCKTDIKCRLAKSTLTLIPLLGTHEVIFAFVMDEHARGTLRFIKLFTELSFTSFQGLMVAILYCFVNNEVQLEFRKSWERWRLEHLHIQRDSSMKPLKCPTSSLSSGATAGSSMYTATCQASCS
T2 sequence (P47871 26-477): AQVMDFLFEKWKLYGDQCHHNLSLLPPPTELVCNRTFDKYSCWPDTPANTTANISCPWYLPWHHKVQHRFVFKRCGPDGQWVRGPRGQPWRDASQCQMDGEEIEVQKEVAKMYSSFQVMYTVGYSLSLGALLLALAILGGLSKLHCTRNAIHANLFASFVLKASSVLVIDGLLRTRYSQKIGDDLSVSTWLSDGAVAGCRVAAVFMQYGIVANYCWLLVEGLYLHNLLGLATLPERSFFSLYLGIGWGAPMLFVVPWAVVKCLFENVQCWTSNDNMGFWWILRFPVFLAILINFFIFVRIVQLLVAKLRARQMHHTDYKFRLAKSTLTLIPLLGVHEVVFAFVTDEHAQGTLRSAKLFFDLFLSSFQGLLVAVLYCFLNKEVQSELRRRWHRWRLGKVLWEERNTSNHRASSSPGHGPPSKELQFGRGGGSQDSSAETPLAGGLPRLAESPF

EC50 [1]	EC50 [2]	Compound
0.3 nM	0.1 nM	CC(C)C[C@H](NC(=O)[C@H](Cc1ccc(O)cc1)NC(=O)[C@H](CCCCN)NC(=O)[C@H](CO)NC(=O)[C@H](Cc1ccc(O)cc1)NC(=O)[C@H](CC(=O)O)NC(=O)[C@H](CO)NC(=O)[C@@H](NC(=O)[C@H](Cc1ccccc1)NC(=O)[C@@H](NC(=O)CNC(=O)[C@H](CCC(N)=O)NC(=O)[C@H](CO)NC(=O)[C@@H](N)Cc1c[nH]cn1)[C@@H](C)O)[C@@H](C)O)C(=O)N[C@@H](CC(=O)O)C(=O)N[C@@H](CO)C(=O)N[C@@H](CCCNC(=N)N)C(=O)N[C@@H](CCCNC(=N)N)C(=O)N[C@@H](C)C(=O)N[C@@H](CCC(N)=O)C(=O)N[C@@H](CC(=O)O)C(=O)N[C@@H](Cc1ccccc1)C(=O)N[C@H](C(=O)N[C@@H](Cc1c[nH]c2ccccc12)C(=O)N[C@@H](CC(C)C)C(=O)N[C@@H](CCCCN)C(=O)N[C@@H](CCCNC(=N)N)C(=O)N[C@@H](C)C(N)=O)C(C)C [Compound 250]
0.2 nM	0.1 nM	CC(C)C[C@H](NC(=O)[C@H](Cc1ccc(O)cc1)NC(=O)[C@H](CCCCN)NC(=O)[C@H](CO)NC(=O)[C@H](Cc1ccc(O)cc1)NC(=O)[C@H](CC(=O)O)NC(=O)[C@H](CO)NC(=O)[C@@H](NC(=O)[C@H](Cc1ccccc1)NC(=O)[C@@H](NC(=O)CNC(=O)[C@H](CCC(N)=O)NC(=O)[C@H](CO)NC(=O)[C@@H](N)Cc1c[nH]cn1)[C@@H](C)O)[C@@H](C)O)C(=O)N[C@@H](CC(=O)O)C(=O)N[C@@H](CO)C(=O)N[C@@H](CCCNC(=N)N)C(=O)N[C@@H](CCCNC(=N)N)C(=O)N[C@@H](C)C(=O)N[C@@H](CCC(N)=O)C(=O)N[C@@H](CC(=O)O)C(=O)N[C@@H](Cc1ccccc1)C(=O)N[C@H](C(=O)N[C@@H](Cc1c[nH]c2ccccc12)C(=O)N[C@@H](CC(C)C)C(=O)N[C@@H](CCC(=O)O)C(=O)N[C@@H](CCCNC(=N)N)C(=O)N[C@@H](C)C(N)=O)C(C)C [Compound 251]
0.03 nM	0.07 nM	CC(C)C[C@@H]1NC(=O)[C@H](CC(C)C)NC(=O)[C@H](Cc2c[nH]c3ccccc23)NC(=O)[C@@H](NC(=O)[C@@H](NC(=O)[C@H](Cc2ccccc2)NC(=O)[C@H](CC(=O)O)NC(=O)[C@H](Cc2c[nH]cn2)NC(=O)[C@H](C)NC(=O)[C@H](C)NC(=O)[C@H](CCCCN)NC(=O)[C@H](CO)NC(=O)[C@H](CC(=O)O)NC(=O)[C@H](CC(C)C)NC(=O)[C@H](Cc2ccc(O)cc2)NC(=O)[C@H](CCCCN)NC(=O)[C@H](CO)NC(=O)[C@H](Cc2ccc(O)cc2)NC(=O)[C@H](CC(=O)O)NC(=O)[C@H](CO)NC(=O)[C@@H](NC(=O)[C@H](Cc2ccccc2)NC(=O)[C@@H](NC(=O)CNC(=O)[C@H](CCC(N)=O)NC(=O)[C@H](CO)NC(=O)[C@@H](N)Cc2c[nH]cn2)[C@@H](C)O)[C@@H](C)O)C(C)C)CCC(=O)NCCCC[C@@H](C(=O)N[C@@H](C)C(N)=O)NC1=O [Compound 261] (H-HSQGTFTSDYSKYLDSKAAHDFVEWLLKA-NH2; lactam 24-28)
0.1 nM	0.16 nM	CCCCCCCCCCCCCCCC(=O)N[C@@H](CCC(=O)NCCCC[C@H](NC(=O)[C@H](CCC(=O)O)NC(=O)[C@H](CC(=O)O)NC(=O)[C@H](CC(C)C)NC(=O)[C@H](Cc1ccc(O)cc1)NC(=O)[C@H](CCCCN)NC(=O)[C@H](CO)NC(=O)[C@H](Cc1ccc(O)cc1)NC(=O)[C@H](CC(=O)O)NC(=O)[C@H](CO)NC(=O)[C@@H](NC(=O)[C@H](Cc1ccccc1)NC(=O)[C@@H](NC(=O)CNC(=O)[C@H](CCC(N)=O)NC(=O)C(C)(C)NC(=O)[C@@H](N)Cc1c[nH]cn1)[C@@H](C)O)[C@@H](C)O)C(=O)N[C@@H](CCCNC(=N)N)C(=O)N[C@@H](C)C(=O)N[C@@H](CCCCN)C(=O)N[C@@H](CC(=O)O)C(=O)N[C@@H](Cc1ccccc1)C(=O)N[C@H](C(=O)N[C@@H](CCC(=O)O)C(=O)N[C@@H](Cc1c[nH]c2ccccc12)C(=O)N[C@@H](CC(C)C)C(=O)N[C@@H](CC(C)C)C(=O)N[C@@H](CO)C(=O)N[C@@H](C)C(N)=O)[C@@H](C)CC)C(=O)O [Compound 263] (H-H[Aib]QGTFTSDYSKYLDEK([γGlu-Palmitoyl])RAKDFIEWLLSA-NH2)
0.2 nM	0.07 nM	H-HSQGTFTSDYSKYLDKRRAEDFVWLMNT-NH2 [Compound 256]
0.24 nM	0.1 nM	H-HSQGTFTSDYSKYLDSALAQDFVWLLNT-NH2 [Compound 255]

More lines, now with the values behind:

Compound	EC50 [1]	EC50 [2]
CCCCCCCCCCCCCCCC(=O)N[C@@H](CCC(=O)NCCCC[C@H](NC(=O)[C@H](CO)NC(=O)[C@H](CC(=O)O)NC(=O)[C@H](CC(C)C)NC(=O)[C@H](Cc1ccc(O)cc1)NC(=O)[C@H](CCCCN)NC(=O)[C@H](CO)NC(=O)[C@H](Cc1ccc(O)cc1)NC(=O)[C@H](CC(=O)O)NC(=O)[C@H](CO)NC(=O)[C@@H](NC(=O)[C@H](Cc1ccccc1)NC(=O)[C@@H](NC(=O)CNC(=O)[C@H](CCC(N)=O)NC(=O)C(C)(C)NC(=O)[C@@H](N)Cc1c[nH]cn1)[C@@H](C)O)[C@@H](C)O)C(=O)N[C@@H](C)C(=O)N[C@@H](C)C(=O)N[C@@H](Cc1c[nH]cn1)C(=O)N[C@@H](CC(=O)O)C(=O)N[C@@H](Cc1ccccc1)C(=O)N[C@H](C(=O)N[C@@H](CCC(=O)O)C(=O)N[C@@H](Cc1c[nH]c2ccccc12)C(=O)N[C@@H](CC(C)C)C(=O)N[C@@H](CC(C)C)C(=O)N[C@@H](CO)C(=O)N[C@@H](C)C(N)=O)C(C)C)C(=O)O [Compound 208]	0.11 nM	0.16 nM
CC(C)C[C@H](NC(=O)[C@H](Cc1ccc(O)cc1)NC(=O)[C@H](CCCCN)NC(=O)[C@H](CO)NC(=O)[C@H](Cc1ccc(O)cc1)NC(=O)[C@H](CC(=O)O)NC(=O)[C@H](CO)NC(=O)[C@@H](NC(=O)[C@H](Cc1ccccc1)NC(=O)[C@@H](NC(=O)CNC(=O)[C@H](CCC(N)=O)NC(=O)[C@H](CO)NC(=O)[C@@H](N)Cc1c[nH]cn1)[C@@H](C)O)[C@@H](C)O)C(=O)N[C@@H](CC(=O)O)C(=O)N[C@@H](CO)C(=O)N[C@@H](CCCNC(=N)N)C(=O)N[C@@H](CCCNC(=N)N)C(=O)N[C@@H](C)C(=O)N[C@@H](CCC(N)=O)C(=O)N[C@@H](CC(=O)O)C(=O)N[C@@H](Cc1ccccc1)C(=O)N[C@H](C(=O)N[C@@H](Cc1c[nH]c2ccccc12)C(=O)N[C@@H](CC(C)C)C(=O)N[C@@H](CCC(=O)O)C(=O)N[C@@H](CO)C(=O)N[C@@H](C)C(N)=O)C(C)C [Compound 248]	0.5 nM	0.1 nM
CC(C)C[C@H](NC(=O)[C@H](Cc1ccc(O)cc1)NC(=O)[C@H](CCCCN)NC(=O)[C@H](CO)NC(=O)[C@H](Cc1ccc(O)cc1)NC(=O)[C@H](CC(=O)O)NC(=O)[C@H](CO)NC(=O)[C@@H](NC(=O)[C@H](Cc1ccccc1)NC(=O)[C@@H](NC(=O)CNC(=O)[C@H](CCC(N)=O)NC(=O)[C@H](CO)NC(=O)[C@@H](N)Cc1c[nH]cn1)[C@@H](C)O)[C@@H](C)O)C(=O)N[C@@H](CC(=O)O)C(=O)N[C@@H](CO)C(=O)N[C@@H](CCCNC(=N)N)C(=O)N[C@@H](CCCNC(=N)N)C(=O)N[C@@H](C)C(=O)N[C@@H](CCC(N)=O)C(=O)N[C@@H](CC(=O)O)C(=O)N[C@@H](Cc1ccccc1)C(=O)N[C@H](C(=O)N[C@@H](Cc1c[nH]c2ccccc12)C(=O)N[C@@H](CC(C)C)C(=O)N[C@@H](CCCCN)C(=O)N[C@@H](CO)C(=O)N[C@@H](C)C(N)=O)C(C)C [Compound 249]	0.1 nM	0.1 nM
H-HSQGTFTSDYSKYLDSRAAQDFVWLMNT-NH2 [Compound 246]	0.3 nM	0.05 nM
H-HSQGTFTSDYSKYLDSRHAQDFVWLMNT-NH2 [Compound 244]	0.5 nM	0.05 nM
H-HSQGTFTSDYSKYLDSRSAQDFVWLMNT-NH2 [Compound 245]	0.1 nM	0.05 nM
